Key:
5-HT3 receptor [1] = target: T1, 5-HT3 receptor (Cavia porcellus, UniProt O70212); experiment: Inhibition of 5-HT-induced contractions in isolated guinea pig ileum; assay type: cell-based; conditions: methysergide 10^-6 M, 20 min incubation, 5-HT contact time 30 sec, 37° C., read-out: A2 (concentration of the antagonist giving a dose ratio of 2) (converted)
T1 construct: the terminal 15 cm of ileum removed, and 1.5-2.0 cm lengths prepared and mounted in 10 ml organ baths; from tissue; host or cells: isolated guinea pig terminal ileum
T1 sequence (O70212 24-490 limits assumed): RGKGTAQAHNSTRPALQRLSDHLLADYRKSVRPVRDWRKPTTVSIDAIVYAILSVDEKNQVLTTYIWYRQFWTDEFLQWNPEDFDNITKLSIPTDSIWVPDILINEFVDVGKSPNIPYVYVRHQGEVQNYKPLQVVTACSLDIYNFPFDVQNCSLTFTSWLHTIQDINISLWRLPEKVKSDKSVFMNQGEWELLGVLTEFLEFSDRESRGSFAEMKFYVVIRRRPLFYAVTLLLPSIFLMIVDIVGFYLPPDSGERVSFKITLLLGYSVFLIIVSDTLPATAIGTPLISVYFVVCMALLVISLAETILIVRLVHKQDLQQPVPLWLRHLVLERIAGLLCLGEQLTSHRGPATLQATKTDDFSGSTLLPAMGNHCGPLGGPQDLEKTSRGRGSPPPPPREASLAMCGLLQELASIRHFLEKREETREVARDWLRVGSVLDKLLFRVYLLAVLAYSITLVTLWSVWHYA
Experimental: Inhibition of 5-HT-Induced Contractions in Isolated Guinea Pig Ileum
Compounds of formula (I) were tested for their 5HT3 -antagonist activity using the following method:
5-HT produces contractions of the guinea pig ileum via 2 different receptors. 1) direct contractions via 5-HT2 receptors on the muscle, 2) indirect contractions via 5-HT3 receptors on intrinsic gut neurones, producing acetylcholine release. By administering 5-HT to lengths of ileum in the presence of methysergide (to block 5-HT2 receptors) you can assay 5-HT3 receptor activity.
Guinea pigs were killed by means of cervical dislocation the terminal 15 cm of ileum removed, and 1.5-2.0 cm lengths prepared and mounted in 10 ml organ baths containing calcium deficient tyrodes of the following composition (mM) NaCl (136.9); KCl (2.68); CaCl2 (0.9); MgCl2 (1.05); NaCO3 (11.9); NaH2 PO4 (0.42); glucose (5.55) and containing methysergide (10^-6 M) maintained at 37° C. and gassed with 95% O2 and 5% CO2. The mechanical activity of the muscle was measured by a HSE 351 isometric transducer connected via a HSE bridge amplifier to a potentiometric pen recorder. […]
The maximum response to acetylcholine for each tissue is measured and the responses to 5-HT calculated as percentage maximum of the acetylcholine (Ach) maximum response in that tissue. The peak of the 5-HT response is measured. […]

5-HT3 receptor [2] = target: T2, 5-HT3 receptor (Mus musculus, UniProt P23979); experiment: 5-HT3 receptor binding to N1E-115 neuroblastoma cells (3H-Quipazine displacement); conditions: for displacement of 3H-Quipazine binding: specificity of the assay, N1E-115 neuroblastoma cells, in words
T2 construct: Harvested cells were homogenized in Tris buffer; endogenous in cells; host or cells: N1E-115 mouse neuroblastoma cells
T2 sequence (P23979 24-489): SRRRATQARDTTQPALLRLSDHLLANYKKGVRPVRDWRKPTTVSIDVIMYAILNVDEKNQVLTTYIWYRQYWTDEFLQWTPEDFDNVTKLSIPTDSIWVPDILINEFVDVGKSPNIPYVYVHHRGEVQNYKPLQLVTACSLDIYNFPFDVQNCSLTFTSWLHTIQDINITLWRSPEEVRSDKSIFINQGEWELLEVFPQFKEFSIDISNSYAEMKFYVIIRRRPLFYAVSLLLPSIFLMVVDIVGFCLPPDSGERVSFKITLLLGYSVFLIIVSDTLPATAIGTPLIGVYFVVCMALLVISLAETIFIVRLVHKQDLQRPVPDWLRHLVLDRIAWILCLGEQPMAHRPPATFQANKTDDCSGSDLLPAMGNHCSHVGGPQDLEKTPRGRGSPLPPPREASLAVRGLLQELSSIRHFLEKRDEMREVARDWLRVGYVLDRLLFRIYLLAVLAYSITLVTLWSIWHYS
Experimental: 5-HT3 Receptor Binding to N1E-115 Neuroblastoma Cells
The binding of 3H-quipazine to N1E-115 neuroblastoma cells in-vitro was determined by a modification of the method of Hoyer and Neijt (Hoyer, D. and Neijt, H. C., 1988, Molecular Pharmacology, 33:303-309). […] The cells were grown to a density of 8-15×10^7 cells per bottle and harvested by vigorous shaking. Harvested cells were homogenized in Tris buffer (20 mm, pH=7.5) containing 154 mM NaCl using a Brinkmann Polytron. The homogenate was centrifuged at 900×g and the supernatant was used directly in the binding assay. The supernatant was diluted at a concentration of 2×10^6 cells per ml in Tris buffer. Binding assays consisted of 50 μL 3H-Quipazine (1 nM final concentration), 250 μL membrane suspension, and 200 μL drug or buffer. Nonspecific binding was determined by the addition of 10 μM MDL 72222. Tubes were incubated at […] for 60 minutes, followed by filtration through GFB filters under vacuum. The filters were then washed with ice-cold Tris buffer.

SMILES	Kb (5-HT3 receptor [1]) [µM]	IC50 (5-HT3 receptor [2]) [µM]	displacement of 3H-Quipazine binding (5-HT3 receptor [2])
CN1[C@@H]2CCC[C@H]1C[C@@H](NC(=O)Nc1ccsc1-c1nc(C3CC3)no1)C2 [Example 4, N-(2-(3-Cyclopropyl-1,2,4-oxadiazol-5-yl)-3-thienyl)-N^1 - (endo-9-methyl-9-azabicyclo[3.3.1]non-3yl)urea]	103	0.0067	–
CCCCc1noc(-c2sccc2NC(=O)N[C@H]2C[C@H]3CCC[C@@H](C2)N3C)n1 [Example 7, N-(2-(3-Butyl-1,2,4-oxadiazol-5-yl)-3-thienyl)-N^1-(endo-9-methyl-9-azabicyclo[3.3.1]non-3-yl)urea]	24.8	0.0023	–
CCCN(CCC)C1CCc2cccc(O)c2C1 (stereo not shown) [Example 8-OH-DPAT]	–	–	inability
CN1[C@@H]2CC[C@H]1C[C@@H](OC(=O)c1c[nH]c3ccccc13)C2 [ICS 205-930]	–	–	potent displacers
CN1[C@@H]2CC[C@H]1C[C@@H](OC(=O)c1cc(Cl)cc(Cl)c1)C2 [MDL 72222]	–	–	potent displacers
O=C(c1ccc(F)cc1)C1CCN(CCn2c(=O)[nH]c3ccccc3c2=O)CC1 [ketanserin]	–	–	inability
c1ccc2nc(N3CCNCC3)ccc2c1 [quipazine]	–	–	potent displacers
COc1cc(N)c(Cl)cc1C(=O)NC1CN2CCC1CC2 (stereo not shown) [zacopride]	–	–	potent displacers
